Reference: patent US20220133679A1, “EFFLUX INHIBITOR COMPOSITIONS AND METHODS OF TREATMENT USING THE SAME” (Izumi Technology, LLC, priority 2012, published 2022)
Several values for one entry are separate records, joined by “and”; a condition that tells them apart may be missing. Equal entries are not always repeated. Where two headings read alike, the source gives them in different places.

Columns and labels:
[1] = Therapeutic agent brain penetration studies (brain concentration); type: in vivo, wildtype FVB mice; settings: for concentration at 1 h: female; for concentration at 1 h / Brain concentration of loperamide, individual animals / Brain concentration of loperamide, mean: 1 h
Method: The drug was administered within 1 h of preparation.
Animals received food and water ad libitum.
(§1) Samples were pre-treated as follows. […] 1000 μl of diethyl ether was added.

in vivo = settings: for concentration at 60 min / concentration at 5 min / concentration at 30 min / AUC(0-t): female, FVB (wildtype), mouse, in vivo; for AUC(0-t): iv
Method: The following elacridar nanoparticle suspension was used in these experiments: 5% elacridar w/w plus 1% w/w TPGS, where 2 ml of NP formulation was diluted with 8 ml of 20% TPGS to give a final elacridar concentration of 10 mg/ml.
The drug was mixed, sonicated and administered within 1 h. The dose used was 50 mg/kg (10 μl/g).
The drug was mixed by vortex and administered within 1.5 h. The dose used was 33 mg/kg (10 μl/g).
The drug was administered within 1 h of preparation. The dose used was 5 mg/kg (5 μl/g).
Non-transgenic (wildtype) FVB mice, females, aged 8 to 10 weeks were used. Animals received food and water ad libitum. Mice in the treatment group (n=5) received elacridar NP formulation orally by gavage in the morning (9-10 am). Mice in the control group (n=5) received no elacridar. All mice (treatment and control group) received the therapeutic agent by i.v. injection in the tail vein in the afternoon (3-4 pm). Blood samples (50 μl) were drawn by bleeding from the tip of the tail at 5 min and 30 min after drug administration. At 1 h after API administration the animals were anesthetized using isoflurane and blood was drawn by cardiac puncture. Next, the animal was killed by cervical dislocation and the brains were harvested. Blood was kept on ice until centrifugation (5 min at 5000 g) within 2 h. Brains were kept on ice for weighing and stored at −20° C. until homogenization. Brains were homogenized in 3 ml of 1% w/v of bovine serum albumin in water.
The mice received elacridar at the standard dose of 100 mg/kg. […] The i.v. administration route was selected for the therapeutic agent in order to achieve the most similar plasma exposure of the therapeutic agent between animals receiving therapeutic agent alone or therapeutic agent with elacridar.
Samples were pre-treated as follows. Plasma (5 to 100 μl) was made up to 100 μl with blank human plasma or brain homogenate (100 μl) and pipetted into a 2 ml eppendorf vial. 50 μl of the internal standard (IS) solution (1000 nM of the deuterated analyte) in acetonitrile:water (30:70; v/v) was added. 1000 μl of diethyl ether was added. Tubes were vigorously mixed for at least 5 min then centrifuged (5 min at 5000 g) before being placed in a bath of ethanol with dry-ice in order to freeze the aqueous bottom layer. The organic supernatant was decanted into a clean 1.5 ml Brand vial and evaporated under vacuum in a Speed-Vac (Savant).
For HPLC-MS/MS analyses, the HPLC systems consisted of an Ultimate DGP-3600A pump with a SRD-3600 Solvent Rack and a model WPS-3000TSL autosampler (Dionex, Sunnyvale, Calif., USA). The HPLC column (100×2.1 mm) was packed with 3 um C18 Extend material. The column effluent was guided to an electrospray ionization (ESI) source of an AP13000 mass spectrometer (ABSciex). The mobile phase composition was: Mobile phase A was 0.1% formic acid in water; and Mobile phase B was Methanol (LC-MS quality, Merck).
Pharmacokinetic analyses were performed using the Microsoft Excel add-in program PKsolver (see e.g., Ward K W et al., J Pharmacol Exp Ther 2004; 310: 703-9, which is incorporated herein in its entirety). Calculations for oral administrations were done by the non-compartmental analyses—extravascular model, whereas we used the non-compartmental analysis—bolus model for i.v. injections. The maximum plasma levels (Cmax) were calculated by comparing the means of the plasma levels at each time point. The Tmax is considered the time point at which the Cmax was reached. The half-life (T½) was calculated from the final log-linear part of the plasma concentration-time curves. The area-under-the-curve for the plasma concentration (plasma AUC) was calculated using the linear trapezoidal rule. Both the AUC from time=0 to the last sampling point (48 h) as well as the AUC extrapolated to infinity was calculated. The oral bioavailability was calculated based on the AUC(0-inf) values. Student t-test was used to compare the means of groups where applicable.

[2] = design: species or system female Sprague-Dawley rats; settings: rat, in vivo, iv, 5 mg/kg
Method: Studies were conducted in female Sprague-Dawley rats. […] The selected 100 mg/kg dose is well above the level where nonlinear pharmacokinetics have been documented. Ten animals were used at weekly intervals between each dosing to allow washout of the drug from the previous dosing.
Elacridar suspension formulation was prepared by weighing 100.03 mg of elacridar, which was first suspended in 5 ml of water, followed by 5 ml of vehicle solution (2.5% w/v of hydroxypropyl methyl cellulose (HPMC) and 2% v/v of Tween 80). This suspension was stirred for about 2.5 hours prior to dosing. The final concentration was 10 mg/ml. This suspension was given at 10 μl per gram body weight to achieve a dose level of 100 mg/kg
Elacridar nanoparticle (NP) suspensions were used as received, except for a final 5-fold dilution step to obtain a NP suspension of 10 mg/ml of elacridar.
There were three study groups: 1) Elacridar Suspension (n=4); 2) Elacridar TPGS nanoparticles (n=5); and 3) Elacridar Poloxamer nanoparticles (n=5). All animals received elacridar orally by gavage under light isoflurane anesthesia. The animals were fasted for a period of 3 h before drug administration. Food pellets were returned to the cages after the 4 h sampling point. Blood samples from the tail vein at: 15, 30 min, 1, 2, 4, 7, 24, 30 and 48 hours. Samples were kept on ice and centrifuged within 2 h to separate plasma. Plasma was stored at −20° C.
Formulation for i.v. administration was prepared by weighing 61.12 mg of elacridar and dissolving this in 2.056 ml of DMSO. The final concentration was 30 mg/ml. Animals (n=4) received […] per gram body weight (5 mg/kg). Blood samples were taken from the tail vein at: 5, 15, 30 min, 1, 2, 4, 7, 24, 30 and 48 h. Samples were kept on ice and centrifuged within 2 h to separate plasma. Plasma was stored at −20° C.
as §1

[3] = Docetaxel plasma concentration, mean
[4] = imatinib with elacridar, 30 min
[5] = imatinib with elacridar, 60 min
[6] = loperamide 5 mg/kg i.v. with elacridar TPGS NP 100 mg/kg p.o. about 6 h before

CC(=O)O[C@@]12CO[C@@H]1C[C@H](O)[C@@]1(C)C(=O)[C@H](O)C3=C(C)[C@@H](OC(=O)[C@H](O)[C@@H](NC(=O)OC(C)(C)C)c4ccccc4)C[C@@](O)([C@@H](OC(=O)c4ccccc4)[C@H]21)C3(C)C [docetaxel]
complications of dosing ([1]; mouse, in vivo, iv): without complications
concentration at 60 min (in vivo; Docetaxel plasma concentration, individual animals): 3030 ng/mL
concentration at 5 min (in vivo; [3]): 206000 ng/mL
concentration at 30 min (in vivo; [3]): 12200 ng/mL
concentration at 60 min (in vivo; [3]): 2570 ng/mL
AUC(0-t) (in vivo; 33 mg/kg, Docetaxel plasma AUC(0-1 h), individual animals): 54100 ng·h/mL
AUC(0-t) (in vivo; 33 mg/kg, Docetaxel plasma AUC(0-1 h), mean): 53300 ng·h/mL

DMSO
AUC(0-48 h) [2]: 260.3 µg·min/mL
AUC(0-inf) [2]: 272.2 µg·min/mL
Cmax [2]: 826.5 ng/mL
F [2]: 100.0%
Tmax [2]: 0 h
T½ [2]: 6.9 h

imatinib
complications of dosing ([1]; mouse, in vivo, iv): without complications
Imatinib plasma concentration, individual animals (in vivo; imatinib alone, 5 min): 49100 ng/mL and 50400 ng/mL and 38200 ng/mL and 61300 ng/mL and 48900 ng/mL
Imatinib plasma concentration, mean (in vivo; imatinib alone, 5 min): 49580.0 ng/mL
Imatinib plasma concentration, individual animals (in vivo; imatinib alone, 30 min): 6590 ng/mL and 11500 ng/mL and 7690 ng/mL and 13200 ng/mL and 11600 ng/mL
Imatinib plasma concentration, mean (in vivo; imatinib alone, 30 min): 10116.0 ng/mL
Imatinib plasma concentration, individual animals (in vivo; imatinib alone, 60 min): 1920 ng/mL and 1260 ng/mL and 2350 ng/mL and 2050 ng/mL and 2760 ng/mL
Imatinib plasma concentration, mean (in vivo; imatinib alone, 60 min): 2068.0 ng/mL
Imatinib plasma concentration, individual animals (in vivo; imatinib with elacridar, 5 min): 90800 ng/mL and 43500 ng/mL and 50000 ng/mL and 34400 ng/mL and 37900 ng/mL
Imatinib plasma concentration, mean (in vivo; imatinib with elacridar, 5 min): 51320.0 ng/mL
Imatinib plasma concentration, individual animals (in vivo; [4]): 11000 ng/mL and 7860 ng/mL and 11700 ng/mL and 8910 ng/mL and 12600 ng/mL
Imatinib plasma concentration, mean (in vivo; [4]): 10414.0 ng/mL
Imatinib plasma concentration, individual animals (in vivo; [5]): 3630 ng/mL and 5580 ng/mL and 3840 ng/mL and 4710 ng/mL and 4100 ng/mL
Imatinib plasma concentration, mean (in vivo; [5]): 4372.0 ng/mL

CN(C)C(=O)C(CCN1CCC(O)(c2ccc(Cl)cc2)CC1)(c1ccccc1)c1ccccc1 [loperamide]
complications of dosing ([1]; FVB mice, i.v., control group (no elacridar)): went smoothly
complications of dosing ([1]; FVB mice, loperamide 5 mg/kg i.v. and elacridar NP 100 mg/kg p.o.): one animal died within 5 minutes after drug administration, whereas another animal had to be sacrificed at 45 min
concentration at 1 h ([1]; FVB (wildtype), mouse, in vivo, loperamide 5 mg/kg i.v. with elacridar TPGS NP 100 mg/kg p.o. about 6 h before, read-out: Brain concentration of loperamide, individual animals): 2910 ng/g
concentration at 1 h ([1]; FVB, mouse, in vivo, 5 mg/kg, loperamide 5 mg/kg i.v. alone, read-out: Brain concentration of loperamide, mean): 73 ng/g
concentration at 1 h ([1]; FVB, mouse, in vivo, loperamide 5 mg/kg i.v. with elacridar TPGS NP 100 mg/kg p.o. about 6 h before, read-out: Brain concentration of loperamide, mean): 3700 ng/g
Brain concentration of loperamide, individual animals ([1]; loperamide 5 mg/kg i.v. alone): 83.8 ng/g and 79.4 ng/g and 84.1 ng/g and 78.1 ng/g and 41.6 ng/g
Brain concentration of loperamide, mean ([1]; loperamide 5 mg/kg i.v. alone): 73.4 ng/g
Brain concentration of loperamide, individual animals [1, 6]: 4376.5 ng/g and 4288.7 ng/g and 3981.2 ng/g and 2933.5 ng/g
Brain concentration of loperamide, mean [1, 6]: 3697.8 ng/g
increase of brain penetration by concomitant elacridar NP ([1]; with vs without elacridar TPGS NP 100 mg/kg p.o., brain at 1 h): 50 fold
change of plasma AUC by concomitant elacridar dosing (in vivo; AUC 5 min to 1 h, with vs without elacridar NP): remained unchanged
concentration at 5 min (in vivo; 5 mg/kg, Loperamide plasma concentration, mean, loperamide alone, 5 min): 1030 ng/mL
concentration at 30 min (in vivo; 5 mg/kg, Loperamide plasma concentration, mean, loperamide alone, 30 min): 221 ng/mL
concentration at 60 min (in vivo; 5 mg/kg, Loperamide plasma concentration, mean, loperamide alone, 60 min): 81.4 ng/mL
concentration at 5 min (in vivo; Loperamide plasma concentration, mean, loperamide with elacridar, 5 min): 989 ng/mL
concentration at 30 min (in vivo; Loperamide plasma concentration, mean, loperamide with elacridar, 30 min): 184 ng/mL
concentration at 60 min (in vivo; Loperamide plasma concentration, mean, loperamide with elacridar, 60 min): 140 ng/mL
AUC(0-t) (in vivo; 5 mg/kg, Loperamide plasma AUC(0-1 h), individual animals, loperamide alone): 740 ng·h/mL
AUC(0-t) (in vivo; 5 mg/kg, Loperamide plasma AUC(0-1 h), individual animals, loperamide with elacridar): 704 ng·h/mL
AUC(0-t) (in vivo; 5 mg/kg, Loperamide plasma AUC(0-1 h), mean, loperamide alone): 747 ng·h/mL
AUC(0-t) (in vivo; 5 mg/kg, Loperamide plasma AUC(0-1 h), mean, loperamide with elacridar): 744 ng·h/mL
Loperamide plasma AUC(0-1 h), individual animals (in vivo; loperamide alone): 43377.5 ng·min/mL and 43440.0 ng·min/mL and 47625.0 ng·min/mL and 45132.5 ng·min/mL
Loperamide plasma concentration, individual animals (in vivo; loperamide alone, 5 min): 2500.0 ng/mL and 430.0 ng/mL and 599.0 ng/mL and 679.0 ng/mL and 925.0 ng/mL
Loperamide plasma concentration, individual animals (in vivo; loperamide alone, 30 min): 191.0 ng/mL and 166.0 ng/mL and 168.0 ng/mL and 354.0 ng/mL and 226.0 ng/mL
Loperamide plasma concentration, individual animals (in vivo; loperamide alone, 60 min): 111.0 ng/mL and 87.5 ng/mL and 88.0 ng/mL and 26.0 ng/mL and 94.5 ng/mL
Loperamide plasma AUC(0-1 h), individual animals (in vivo; loperamide with elacridar): 44405.0 ng·min/mL and 46040.0 ng·min/mL and 45978.8 ng·min/mL
Loperamide plasma concentration, individual animals (in vivo; loperamide with elacridar, 5 min): 1220.0 ng/mL and 306.0 ng/mL and 376.0 ng/mL and 511.0 ng/mL and 2530.0 ng/mL
Loperamide plasma concentration, individual animals (in vivo; loperamide with elacridar, 30 min): 115.0 ng/mL and 178.0 ng/mL and 163.0 ng/mL and 282.0 ng/mL
Loperamide plasma concentration, individual animals (in vivo; loperamide with elacridar, 60 min): 106.0 ng/mL and 134.0 ng/mL and 270.5 ng/mL and 48.3 ng/mL
